Assay results as given in US20150342876A1, “METHODS AND PHARMACEUTICAL COMPOSITIONS FOR THE TREATMENT OF OCULAR INFLAMMATORY DISEASES” (Institut National de la Santé et de la Recherche Médicale …, priority 2011, published 2015).

Key:
Format in all cases: in vivo, Lewis rats
TNF-α = assay: Chemokine/cytokine multiplex assay of ocular media in EIU: TNF-α; conditions: compared with control animals treated with the vehicle alone (FIG. 2)
Protocol: (§1) Aqueous humor and vitreous collected from each eye were pooled, diluted to obtain a final volume of 25 μL, and subjected to multiplex bead analysis. This method uses microspheres as the solid support for immunoassays (Vignali D A. Multiplexed particle-based flow cytometric assays. J Immunol Methods. 2000; 243:243-255.) and allows the titration of a greater number of cytokines with increased sensitivity than occurs with ELISA (Ooi K G, Galatowicz G, Towler H M, Lightman S L, Calder V L. Multiplex cytokine detection versus ELISA for aqueous humor: IL-5, IL-10, and IFNγ profiles in uveitis. Invest Ophthalmol Vis Sci. 2006; 47:272-277.). The rat cytokine/chemokine LINCO-16plex kit (Linco Research) was purchased from Invitrogen (Cergy-Pontoise, France). Chemokine MIP1α/CCL3, proinflammatory mediator TNF-α, cytokines IFN-γ/IL-4, and IL-6 were measured according to the manufacturer's instructions. The assay was performed in a 96-well filter plate with all the assay components provided in the kit. Standard curves for each cytokine were generated with a calibration kit (Bio-Rad, Hercules, Calif.). All incubation steps were performed at room temperature with medium orbital agitation and in the dark to protect the beads from light. Data acquisition and analysis were performed with the manager software version 4.1 (Bioplex; Bio-Rad) with four or five logistic parameters for standard curves. […]

[1] = system: resident microglial cells of the retina and ciliary body; assay: Anti-IBA-1 immunohistochemistry of resident microglial cells in EIU; conditions: 24 h after LPS and intravitreal injection, compared to eyes injected with the vehicle
Protocol: To evaluate the effect of aldosterone on resident microglial cells of the retina and ciliary body, we performed immunohistochemical studies with an anti-IBA-1 antibody coupled with a secondary antibody Alexa488 on cryostat sections 24 h after LPS injection and injection intravitreal aldosterone or spironolactone. […] The anti-inflammatory effect of aldosterone may be related to the deactivation of resident microglial cells.

MR = assay: Expression of MR in the iris and ciliary body in EIU (quantitative PCR); conditions: after intravitreal injection in EIU, p<0.05
Protocol: (§2) Iris and ciliary body tissues are most involved in the EIU. In an attempt to understand the role of MR and GR in EIU model, we evaluated the expression of these two receptors in quantitative PCR in the iris/ciliary body 3 h, 6 h and 24 h after injection of LPS. We were surprised that the kinetics of MR and GR were not similar. 3 hours after induction of EIU (p<0.001), so before the infiltration of inflammatory cells, there was a decreased expression of MR, which was maintained up to 24 hours (p<0.001). On the contrary the decreased expression of GR was later in the 24th hour (p<0.01). Immunohistochemical studies confirmed the decrease in the rate of receptors in the iris. The decreased expression of MR and GR takes place mainly in the endothelial cells of vessels in the iris and iris stromal cells. At baseline, the binding of endogenous glucocorticoids to MR likely plays a role in anti-inflammatory. The reduction of early MR can be seen as a step prior to the onset of ocular inflammation.
(§3) The expression of MR and GR in the iris and ciliary body is increased after intravitreal injection of aldosterone (p<0.05). […] Presumably, the anti-inflammatory effect of aldosterone in this model is partly due to the increased expression of MR.

IFN-γ/IL-4 = assay: Chemokine/cytokine multiplex assay of ocular media in EIU: IFN-γ/IL-4; conditions: compared with control animals treated with the vehicle alone (FIG. 2)
Protocol: as §1

MIP1α/CCL3 = assay: Chemokine/cytokine multiplex assay of ocular media in EIU: MIP1α/CCL3; conditions: compared with control animals treated with the vehicle alone (FIG. 2)
Protocol: as §1

macrophages = assay: EDI positive cell counts in histological sections (immunohistochemistry) in EIU; conditions: intravitreal 200 nM, 24 h after LPS, compared to eyes injected vehicle or spironolactone, p<0.05
Protocol: To evaluate the effect of intravitreal injection of 200 nM aldosterone and spironolactone 10 μM, immunohistochemical studies were performed on cryostat sections. An anti EDI antibody coupled with an Alexa488 secondary antibody was used to mark macrophages which are among the cells most involved in EIU. We conducted an EDI positive cell counts in histological sections 24 h after LPS injection and intravitreal injection of aldosterone or spironolactone.

GR = assay: Expression of GR in the iris and ciliary body in EIU (quantitative PCR); conditions: after intravitreal injection in EIU
Protocol: as §2, §3

blood-ocular barrier = assay: Proteins present in eye fluids (leaking of the blood-ocular barrier) in EIU; conditions: at 6 hours, versus vehicle
Description: Proteins present in eye fluids reflect the leaking of the blood-ocular barrier.

IL-6 = assay: Chemokine/cytokine multiplex assay of ocular media in EIU: IL-6; conditions: compared with control animals treated with the vehicle alone (FIG. 2)
Protocol: as §1

[2] = system: Endotoxin-induced uveitis; assay: Endotoxin-induced uveitis, clinical score at slit lamp; conditions: for severity of uveitis (clinical examination): slit lamp 24 hours after LPS
Protocol: Female Lewis rats (6- to 8-week old) weighing 230-250 g (Elevage Janvier, Le Genest Saint Isle, France) were used and handled in accordance with the ARVO Statement for the Use of Animals in Ophthalmic and Vision Research. Rats were anesthetized with intramuscular injection of ketamine (75 mg kg^−1; Virbac, Carros Cedex, France) and Largactil (0.5 mg kg^−1; Sanofi-aventis, Paris, France) before ocular injection and ET. At the end of the experiments, rats were anesthetized by intraperitoneal injection of pentobarbital (30 mg kg^−1; Sanofi-aventis) before blood collection by intracardiac puncture and then killed with a lethal dose of pentobarbital.
Endotoxin-induced uveitis was induced by footpad injection of 0.1 ml sterile pyrogen-free saline containing 500 μgkg^−1 LPS (from Salmonella typhimurium; Sigma-Aldrich). Animals were examined by slit lamp during the maximal severity of EIU developing in this model 24 h after the footpad injection. The intensity of clinical ocular inflammation was scored on a scale from 0 to 5 for each eye as described previously (Behar-Cohen F F, Parel J M, Pouliquen Y, Thillaye-Goldenberg B, Goureau O, Heydolph S et al. Iontophoresis of dexamethasone in the treatment of endotoxin-induced-uveitis in rats. Exp Eye Res 1997; 65: 533-545.): grade (0) indicates no inflammation; grade 1 indicates the presence of a minimal iris and conjunctival vasodilation but without the observation of flare or cells in the anterior chamber (AC); grade 2 indicates the presence of moderate iris and conjunctival vessel dilation but without evident flare or cells in the AC; grade 3 indicates the presence of intense iris vessels dilation, flare and less than 10 cells per slit lamp field in the AC; grade 4 indicates the presence of more severe clinical signs than grade 3, with more than 10 cells in the AC with or without the formation of a hypopyon; grade 5 indicates the presence of intense inflammatory reaction, fibrin formation in the AC and total seclusion of the pupil.
Clinical evaluation was performed in a masked manner by two observers. The mean clinical score of the two observers was recorded.
Lewis rats were anesthetized by intraperitoneal injection of 0.15 mL pentobarbital (5.47 g/100 mL saline). Pupils were dilated by instillation of one drop of tropicamide 5%. One drop of tetracaine 1% was administered for local anesthesia. Intravitreal injections (10 μL) of aldosterone (20 nM and 200 nM) and spironolactone (10 μM) were performed in both eyes using sterile syringes fitted with a 30-gauge needle (Microfine; Becton Dickinson AG, Meylan, France). Intravitreal injections were performed simultaneously with EIU induction, as described.
Results are expressed as mean±SEM. The Mann-Whitney U test was used to determine differences between groups. […]

Row | SMILES | TNF-α in the ocular media (TNF-α) | state of microglial cells (IBA-1) [1] | expression of MR in the iris and ciliary body (MR) | IFN-γ/IL-4 in the ocular media (IFN-γ/IL-4) | MIP1α/CCL3 in the ocular media (MIP1α/CCL3) | number of macrophages (EDI positive cell counts) (macrophages) | expression of GR in the iris and ciliary body (GR) | rate of protein in eye fluids (blood-ocular barrier) | IL-6 in the ocular media (IL-6) | severity of uveitis (clinical examination) ([2]; injection 1 nM) | severity of uveitis (clinical examination) ([2]; intravitreal injection 20 nM, p<0.05) | severity of uveitis (clinical examination) ([2]; intravitreal injection 200 nM, p<0.001) | intensity of uveitis (clinical examination) ([2]; intravitreal injection 10 microM, 24 hours)
1 | C[C@]12CCC(=O)C=C1CC[C@@H]1[C@@H]2[C@@H](O)C[C@]2(C=O)[C@@H](C(=O)CO)CC[C@@H]12 [aldosterone, 11β,21-dihydroxy-3,20-dioxopregn-4-en-18-al] | significantly reduced | greater number of microglial cells were then branched into a latent state | increased | significantly reduced | significantly reduced | decrease in the number of macrophages | increased | significantly reduced | significantly reduced | had no effect | severity decrease statistically significant | severity decrease statistically significant | –
2 | CC(=O)S[C@@H]1CC2=CC(=O)CC[C@]2(C)[C@H]2CC[C@@]3(C)[C@@H](CC[C@@]34CCC(=O)O4)[C@H]12 [spironolactone] | significantly increased | larger number of microglial cells were round, and consequently active | exacerbated the decrease in MR | significantly increased | significantly increased | – | has no effect | had no effect | significantly increased | – | – | – | increased the intensity of uveitis
